Laboratory results from the NIST ThermoML archive (doi:10.1016/j.fluid.2014.10.015).

Test: molar heat capacity at constant pressure
Conditions: 101.33 kPa, Liquid, Small sample (50 mg) DSC

CC(=O)[O-].CCCCn1cc[n+](C)c1 [1-butyl-3-methylimidazolium acetate]
Conditions | molar heat capacity at constant pressure [J/K/mol]
253.15 K | 359.54
258.15 K | 361.57
263.15 K | 363.69
268.15 K | 365.9
273.15 K | 368.21
278.15 K | 370.61
283.15 K | 373.1
293.15 K | 378.36
298.15 K | 381.12
303.15 K | 383.98
313.15 K | 389.98
323.15 K | 396.35
333.15 K | 403.09
343.15 K | 410.2
353.15 K | 417.68
363.15 K | 425.53
373.15 K | 433.75
383.15 K | 442.34
393.15 K | 451.3
403.15 K | 460.63
413.15 K | 470.33
